# In patent publication US20230301300A1, “HERBICIDAL COMPOSITIONS” (SYNGENTA CROP PROTECTION AG, priority 2020, published 2023):
# Experiments:
# Type in all cases: in vivo
# Setaria faberi (SETFA) [1] = assay: B1 Post-Emergence Efficacy - Test 1; details: 1000 g/ha, after 13 days, five point scale
# Experimental: Seeds of a variety of test species are sown in standard soil in pots:— Solanum nigrum (SOLNI), Amaranthus retoflexus (AMARE), Setaria faberi (SETFA), Alopecurus myosuroides (ALOMY), Echinochloa crus-galli (ECHCG), Ipomoea hederacea (IPOHE), Lolium perenne (LOLPE). After 8 days cultivation (post-emergence) under controlled conditions in a glasshouse (at 24/16° C., day/night; 14 hours light; 65% humidity), the plants are sprayed with an aqueous spray solution derived from the formulation of the technical active ingredient in acetone/water (50:50) solution containing 0.5% Tween 20 (polyoxyethylene sorbitan monolaurate, CAS RN 9005-64-5). Compounds are applied at 1000 g/ha. The test plants are then grown in a glasshouse under controlled conditions in a glasshouse (at 24/16° C., day/night; 14 hours light; 65% humidity) and watered twice daily. After 13 days, the test is evaluated for the percentage damage caused to the plant. The biological activities are assessed on a five point scale (5=80-100%; 4=60-79%; 3=40-59%; 2=20-39%; 1=0-19%). A blank value in the table is indicative that the compound was not tested on that species.
# [2] = test system: Amaranthus retroflexus (AMARE); assay: B2 Post-Emergence Efficacy - Test 2; details: 15 days after application, 0-100 scale
# Summary of the method: (§1)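 Post-emergence spray, 12-day-old potted plants; IF50 formulation in water + Genapol X080 0.2% v/v. Glasshouse 24/18 or 20/16 °C, 16 h light, 65% RH, watered twice daily. Rating at 15 DAA, 0 = no damage, 100 = total kill.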
# Avena fatua (AVEFA) = assay: B2 Post-Emergence Efficacy - Test 2; details: 15 days after application, 0-100 scale
# Summary of the method: as §1
# Beta vulgaris (BEAVA) = assay: B2 Post-Emergence Efficacy - Test 2; details: 15 days after application, 0-100 scale
# Summary of the method: as §1
# Bidens pilosa (BIDPI) = assay: B2 Post-Emergence Efficacy - Test 2; details: 15 days after application, 0-100 scale
# Summary of the method: as §1
# [3] = test system: Brachiaria plantaginea (BRAPL); assay: B2 Post-Emergence Efficacy - Test 2; details: 15 days after application, 0=no damage, 100=total kill
# Summary of the method: as §1
# [4] = test system: Digitaria sanguinalis (DIGSA); assay: B2 Post-Emergence Efficacy - Test 2; details: 15 days after application, 0=no damage, 100=total kill
# Summary of the method: as §1
# Eleisine indica (ELEIN) = assay: B2 Post-Emergence Efficacy - Test 2; details: 15 days after application, 0=no damage, 100=total kill
# Summary of the method: as §1
# Galium aparine (GALAP) = assay: B2 Post-Emergence Efficacy - Test 2; details: 15 days after application, 0-100 scale
# Summary of the method: as §1
# Hordeum vulgare (HORVW) = assay: B2 Post-Emergence Efficacy - Test 2; details: 15 days after application, 0-100 scale
# Summary of the method: as §1
# [5] = test system: Ipomoea hederacea (IPOHE); assay: B2 Post-Emergence Efficacy - Test 2; details: 15 days after application, 0-100 scale
# Summary of the method: as §1
# Kochia scoparia (KSHSC) = assay: B2 Post-Emergence Efficacy - Test 2; details: 15 days after application, 0-100 scale
# Summary of the method: as §1
# Setaria faberi (SETFA) [6] = assay: B2 Post-Emergence Efficacy - Test 2; details: 15 days after application, 0=no damage, 100=total kill
# Summary of the method: as §1
# Sinapis arvensis (SINAR) = assay: B2 Post-Emergence Efficacy - Test 2; details: 15 days after application, 0-100 scale
# Summary of the method: as §1
# [7] = test system: Triticum aestivum (TRZAW); assay: B2 Post-Emergence Efficacy - Test 2; details: 15 days after application, 0-100 scale
# Summary of the method: as §1
# Veronica persica (VERPE) = assay: B2 Post-Emergence Efficacy - Test 2; details: 15 days after application, 0-100 scale
# Summary of the method: as §1
smiles,measurement,setting,value
"Cc1nn(C)c(=O)c(-c2c(F)ccc(Cl)c2CCc2ccc(F)cc2)c1O [Compound 1.048, 4-[3-chloro-6-fluoro-2-[2-(4-fluorophenyl)ethyl]phenyl]-5-hydroxy-2,6-dimethyl-pyridazin-3-one]","percentage damage caused to the plant, SETFA",Setaria faberi (SETFA) [1],5 (5=80-100%)
same,Herbicidal activity AMARE,[2]; 15 g/Ha,60
same,Herbicidal activity AMARE,[2]; 30 g/Ha,80
same,Herbicidal activity AMARE,[2]; 60 g/Ha,90
same,Herbicidal activity AMARE,[2]; 125 g/Ha,90
same,Herbicidal activity AMARE,[2]; 250 g/Ha,100
same,Herbicidal activity AMARE,[2]; 500 g/Ha,100
same,Herbicidal activity AVEFA,Avena fatua (AVEFA); 15 g/Ha,10
same,Herbicidal activity AVEFA,Avena fatua (AVEFA); 30 g/Ha,30
same,Herbicidal activity AVEFA,Avena fatua (AVEFA); 60 g/Ha,60
same,Herbicidal activity AVEFA,Avena fatua (AVEFA); 125 g/Ha,80
same,Herbicidal activity AVEFA,Avena fatua (AVEFA); 250 g/Ha,90
same,Herbicidal activity AVEFA,Avena fatua (AVEFA); 500 g/Ha,90
same,Herbicidal activity BEAVA,Beta vulgaris (BEAVA); 15 g/Ha,70
same,Herbicidal activity BEAVA,Beta vulgaris (BEAVA); 30 g/Ha,80
same,Herbicidal activity BEAVA,Beta vulgaris (BEAVA); 60 g/Ha,80
same,Herbicidal activity BEAVA,Beta vulgaris (BEAVA); 125 g/Ha,90
same,Herbicidal activity BEAVA,Beta vulgaris (BEAVA); 250 g/Ha,90
same,Herbicidal activity BEAVA,Beta vulgaris (BEAVA); 500 g/Ha,90
same,Herbicidal activity BIDPI,Bidens pilosa (BIDPI); 15 g/Ha,70
same,Herbicidal activity BIDPI,Bidens pilosa (BIDPI); 30 g/Ha,70
same,Herbicidal activity BIDPI,Bidens pilosa (BIDPI); 60 g/Ha,70
same,Herbicidal activity BIDPI,Bidens pilosa (BIDPI); 125 g/Ha,70
same,Herbicidal activity BIDPI,Bidens pilosa (BIDPI); 250 g/Ha,100
same,Herbicidal activity BIDPI,Bidens pilosa (BIDPI); 500 g/Ha,100
same,"Herbicidal activity on a 0-100 scale, BRAPL",[3]; 15 g/Ha,20
same,"Herbicidal activity on a 0-100 scale, BRAPL",[3]; 30 g/Ha,60
same,"Herbicidal activity on a 0-100 scale, BRAPL",[3]; 60 g/Ha,80
same,"Herbicidal activity on a 0-100 scale, BRAPL",[3]; 125 g/Ha,80
same,"Herbicidal activity on a 0-100 scale, BRAPL",[3]; 250 g/Ha,90
same,"Herbicidal activity on a 0-100 scale, BRAPL",[3]; 500 g/Ha,100
same,"Herbicidal activity on a 0-100 scale, DIGSA",[4]; 15 g/Ha,0
same,"Herbicidal activity on a 0-100 scale, DIGSA",[4]; 30 g/Ha,10
same,"Herbicidal activity on a 0-100 scale, DIGSA",[4]; 60 g/Ha,20
same,"Herbicidal activity on a 0-100 scale, DIGSA",[4]; 125 g/Ha,20
same,"Herbicidal activity on a 0-100 scale, DIGSA",[4]; 250 g/Ha,50
same,"Herbicidal activity on a 0-100 scale, DIGSA",[4]; 500 g/Ha,70
same,"Herbicidal activity on a 0-100 scale, ELEIN",Eleisine indica (ELEIN); 15 g/Ha,0
same,"Herbicidal activity on a 0-100 scale, ELEIN",Eleisine indica (ELEIN); 30 g/Ha,50
same,"Herbicidal activity on a 0-100 scale, ELEIN",Eleisine indica (ELEIN); 60 g/Ha,60
same,"Herbicidal activity on a 0-100 scale, ELEIN",Eleisine indica (ELEIN); 125 g/Ha,60
same,"Herbicidal activity on a 0-100 scale, ELEIN",Eleisine indica (ELEIN); 250 g/Ha,80
same,"Herbicidal activity on a 0-100 scale, ELEIN",Eleisine indica (ELEIN); 500 g/Ha,80
same,Herbicidal activity GALAP,Galium aparine (GALAP); 15 g/Ha,20
same,Herbicidal activity GALAP,Galium aparine (GALAP); 30 g/Ha,30
same,Herbicidal activity GALAP,Galium aparine (GALAP); 60 g/Ha,50
same,Herbicidal activity GALAP,Galium aparine (GALAP); 125 g/Ha,60
same,Herbicidal activity GALAP,Galium aparine (GALAP); 250 g/Ha,60
same,Herbicidal activity GALAP,Galium aparine (GALAP); 500 g/Ha,80
same,Herbicidal activity HORVW,Hordeum vulgare (HORVW); 15 g/Ha,10
same,Herbicidal activity HORVW,Hordeum vulgare (HORVW); 30 g/Ha,10
same,Herbicidal activity HORVW,Hordeum vulgare (HORVW); 60 g/Ha,10
same,Herbicidal activity HORVW,Hordeum vulgare (HORVW); 125 g/Ha,40
same,Herbicidal activity HORVW,Hordeum vulgare (HORVW); 250 g/Ha,40
same,Herbicidal activity HORVW,Hordeum vulgare (HORVW); 500 g/Ha,80
same,Herbicidal activity IPOHE,[5]; 15 g/Ha,70
same,Herbicidal activity IPOHE,[5]; 30 g/Ha,80
same,Herbicidal activity IPOHE,[5]; 60 g/Ha,100
same,Herbicidal activity IPOHE,[5]; 125 g/Ha,100
same,Herbicidal activity IPOHE,[5]; 250 g/Ha,100
same,Herbicidal activity IPOHE,[5]; 500 g/Ha,100
same,Herbicidal activity KCHSC,Kochia scoparia (KSHSC); 15 g/Ha,0
same,Herbicidal activity KCHSC,Kochia scoparia (KSHSC); 30 g/Ha,0
same,Herbicidal activity KCHSC,Kochia scoparia (KSHSC); 60 g/Ha,10
same,Herbicidal activity KCHSC,Kochia scoparia (KSHSC); 125 g/Ha,20
same,Herbicidal activity KCHSC,Kochia scoparia (KSHSC); 250 g/Ha,50
same,Herbicidal activity KCHSC,Kochia scoparia (KSHSC); 500 g/Ha,80
same,"Herbicidal activity on a 0-100 scale, SETFA",Setaria faberi (SETFA) [6]; 15 g/Ha,0
same,"Herbicidal activity on a 0-100 scale, SETFA",Setaria faberi (SETFA) [6]; 30 g/Ha,40
same,"Herbicidal activity on a 0-100 scale, SETFA",Setaria faberi (SETFA) [6]; 60 g/Ha,40
same,"Herbicidal activity on a 0-100 scale, SETFA",Setaria faberi (SETFA) [6]; 125 g/Ha,70
same,"Herbicidal activity on a 0-100 scale, SETFA",Setaria faberi (SETFA) [6]; 250 g/Ha,80
same,"Herbicidal activity on a 0-100 scale, SETFA",Setaria faberi (SETFA) [6]; 500 g/Ha,100
same,Herbicidal activity SINAR,Sinapis arvensis (SINAR); 15 g/Ha,40
same,Herbicidal activity SINAR,Sinapis arvensis (SINAR); 30 g/Ha,80
same,Herbicidal activity SINAR,Sinapis arvensis (SINAR); 60 g/Ha,80
same,Herbicidal activity SINAR,Sinapis arvensis (SINAR); 125 g/Ha,90
same,Herbicidal activity SINAR,Sinapis arvensis (SINAR); 250 g/Ha,90
same,Herbicidal activity SINAR,Sinapis arvensis (SINAR); 500 g/Ha,90
same,Herbicidal activity TRZAW,[7]; 15 g/Ha,0
same,Herbicidal activity TRZAW,[7]; 30 g/Ha,10
same,Herbicidal activity TRZAW,[7]; 60 g/Ha,20
same,Herbicidal activity TRZAW,[7]; 125 g/Ha,20
same,Herbicidal activity TRZAW,[7]; 250 g/Ha,50
same,Herbicidal activity TRZAW,[7]; 500 g/Ha,80
same,Herbicidal activity VERPE,Veronica persica (VERPE); 15 g/Ha,60
same,Herbicidal activity VERPE,Veronica persica (VERPE); 30 g/Ha,80
same,Herbicidal activity VERPE,Veronica persica (VERPE); 60 g/Ha,90
same,Herbicidal activity VERPE,Veronica persica (VERPE); 125 g/Ha,80
same,Herbicidal activity VERPE,Veronica persica (VERPE); 250 g/Ha,100
same,Herbicidal activity VERPE,Veronica persica (VERPE); 500 g/Ha,100
